# According to patent US20100130493A1, “COMBINATION OF VEGF RECEPTOR TYROSINE KINASE INHIBITORS FOR TREATMENT OF CANCER” (priority 2002, published 2010):
# What was measured:
# [1] = test system: human A431 vulval carcinoma tumour xenografts; experiment: Human A431 vulval carcinoma tumour xenografts in nude mice; details: A431 xenograft; for Number of tumours regressing after 31 days of treatment (treatment from day 28 to day 59): tumour volume at day 59 smaller than pre-treatment value on day 28, regressing/total
# Experimental: 5×10^6 A431 tumour cells in 0.1 ml of serum free Dulbecco's Modified Eagle's Medium (DMEM) were injected subcutaneously (s.c.) into the flank of each athymic (nu/nu genotype) mouse. Eleven days after inoculation tumours were excised and dissected to generate cubic tumour fragments of 0.5-1 mm^3, which were implanted into further nude mice for a therapy experiment. Tumour volumes were assessed by bilateral Vernier caliper measurement and, taking length to be the longest diameter across the tumour and width the corresponding perpendicular, calculated using the formula (length×width)×the square root of (length×width)×(π/6). […] In addition, the number of tumour regressions following 31 days of treatment was ascertained (tumour regression being evident if the tumour volume at day 59 was smaller than the pre-treatment value on day 28).
# [2] = test system: human LoVo colon tumour xenografts; experiment: Human LoVo colon tumour xenografts in nude mice; details: LoVo xenograft, p.o. daily days 0-14, ZD6474 6 mg/kg/day, ZD1839 50 mg/kg/day, or combination, versus control
# Experimental: 10^7 LoVo tumour cells in 0.1 ml of serum free Dulbecco's Modified Eagle's Medium (DMEM) were injected subcutaneously (s.c.) into the flank of each athymic (nu/nu genotype) mouse. Tumor volumes were assessed by bilateral Vernier caliper measurement and, taking length to be the longest diameter across the tumor and width the corresponding perpendicular, calculated using the formula (length×width)×the square root of (length×width)×(π/6). […] A one-tailed two-sample t-test was used to evaluate the significance of tumour growth inhibition.
compound,measurement,setting,value
"COc1cc2c(Nc3ccc(Br)cc3F)ncnc2cc1OCC1CCN(C)CC1 [ZD6474, 4-(4-bromo-2-fluoroanilino)-6-methoxy-7-(1-methylpiperidin-4-ylmethoxy)quinazoline]",Mean % Inhibition of tumour growth following 21 days of treatment (treatment from day 28 to day 49),"[1]; nude mice, p.o., ZD6474 50 mg/kg/day, ZD1839 50 mg/kg/day, or combination, assessed day 49 versus control",116% (P < 0.001)
same,% tumour regression following 21 days of treatment (day 28 to day 49),"[1]; restatement of inhibition above 100% as regression, day 49",(i.e. 16% tumour regression)
same,Number of tumours regressing after 31 days of treatment (treatment from day 28 to day 59),[1],6/9
same,% Inhibition of Tumour Growth at Day 14,[2],38%
"COc1cc2ncnc(Nc3ccc(F)c(Cl)c3)c2cc1OCCCN1CCOCC1 [ZD1839, N-(3-chloro-4-fluorophenyl)-7-methoxy-6-(3-morpholinopropoxy)quinazolin-4-amine, reference compound]",Number of tumours regressing after 31 days of treatment (treatment from day 28 to day 59),[1],3/9
